Reference: patent publication US20220041641A1, “QUATERNARY AMMONIUM SALTS AS INHIBITORS OF TRIMETHYLAMINE PRODUCTION” (Senda Biosciences, Inc., priority 2018, published 2022)

Legend:
in vivo = assay: in vivo; design: species or system Sprague-Dawley rats; details: Sprague-Dawley, rat
[1] = type: in vitro ADME; details: simulated gi fluid, 1 µM, pH 1.6
Description: This assay was used to assess the stability of a conjugate in a stomach.
Medium was prepared by dissolving 2 g of sodium chloride in 0.6 L in ultrapure water (MilliQ®, Millipore Sigma, Darmstadt, Germany). The pH was adjusted to 1.6 with 1N hydrochloric acid, and the volume was then adjusted to 1 L with purified water.
60 mg FaSSIF powder (Biorelevant™, London, UK) were dissolved in 500 mL buffer (above). Pepsin was added (0.1 mg/mL) (Millipore Sigma, Darmstadt, Germany), and the solution was stirred. The resulting SGF media were used fresh for each experiment.
(§1) Test compounds were dissolved in DMSO stock to 1 mM. An aliquot of the DMSO stock solution was removed and diluted in the SGF Media in 15 mL falcon tubes to generate a total compound concentration of 1 μM. A 1 mL aliquot was immediately removed and diluted once with 1 volume of acetonitrile for T0 timepoint. The mixture was sealed and mixed at 37° C. in an incubator. Aliquots (1 mL) were removed at regular intervals and immediately quenched by the addition of 1 volume of acetonitrile. The resulting samples were analyzed by LCMS to determine degradation rates in SGF.

[2] = type: in vitro ADME; details: simulated gi fluid, 1 µM, pH 6.7
Description: This assay was used to assess the stability of a conjugate in a small intestine.
Phosphate buffer was prepared by dissolving 0.42 g of sodium hydroxide pellets and 3.95 g of monobasic sodium phosphate monohydrate and 6.19 g of sodium chloride in ultrapure water (MilliQ®, Millipore Sigma, Darmstadt, Germany). The pH was adjusted to 6.7 using aq. HCl and aq. NaOH, as necessary, and the solution was diluted with ultrapure water to produce 1 L of the pH 6.7 buffer.
112 mg FaSSIF powder (Biorelevant™, London, UK) was dissolved in 50 mL of the pH 6.7 buffer. 2 to 3 mL of the resulting solution were then added to 500 mg pancreatin (Millipore Sigma, Darmstadt, Germany). The resulting mixture was agitated by finger tapping the vessel containing the mixture until milky suspension formed. At this time, the remainder of the 50 mL FaSSiF/pH 6.7 buffer solution was added. The resulting suspension was flipped upside down 10 times to produce SIF, which was used fresh.
as §1, with “SIF media” for “SGF Media”, “produce” for “generate”, “mixture with a tested” for “total”, “agitated” for “mixed”, “rates.” for “rates in SGF.”

[3] = Caco-2 permeability assay; type: in vitro ADME; details: human, Caco-2, pH 7.4

CC(=O)OC[C@H]1O[C@@H](OCC[N+](C)(C)C2CC2)[C@H](OC(C)=O)[C@@H](OC(C)=O)[C@@H]1OC(C)=O.[I-] [Compound 80, N,N-dimethyl-N-(2-{[(3R,4S,5R,6R)-3,4,5-tris(acetyloxy)-6-[(acetyloxy)methyl]oxan-2-yl]oxy}ethyl)cyclopropanaminium Iodide]
Cmax (in vivo; iv, 1 mg/kg): 7.68 µM
IV Cmax (in vivo; iv, 1 mg/kg): 0 nmol/L
% F (in vivo; po, 10 mg/kg): 1.5%
bioavailability (in vivo; po, 10 mg/kg): 0.68%
Assay 1- FaSSGF Stability: % Remaining at 1 hr [1]: 145.32%
Assay 2- FaSSIF Stability: % Remaining at 4 hr [2]: 99.34%
Papp A→B at 2 h, 1 µM [3]: 0.28 ×10⁻⁶ cm/s
Papp B→A at 2 h, 1 µM [3]: 0.313 ×10⁻⁶ cm/s
